Values belong to the compound of their own block, whether it stands above or below them.
What was measured:
[1] = molecular target: T1, NDM-1 (Klebsiella pneumoniae, UniProt C7C422); test: In vitro inhibition assay (kinetic fluorescence-based activity assay), NDM-1; assay type: biochemical; conditions: Means and SD of at least two independent experiments
T1 construct: made in house
Experimental: (§1) Protein expression and purification. The expression of IMP-7, VIM-1, and NDM-1 was performed according to the protocol previously published by Klingler et al. (Klingler, F. M.; Wichelhaus, T. A.; Frank, D.; Cuesta-Bernal, J.; El-Delik, J.; Müller, H. F.; Sjuts, H.; Gottig, S.; Koenigs, A.; Pos, K. M.; et al. Approved Drugs Containing Thiols as Inhibitors of Metallo-β-Lactamases: Strategy to Combat Multidrug-Resistant Bacteria. J. Med. Chem. 2015, 58 (8), 3626-3630. https://doi.org/10.1021/jm501844d) with slight modifications.
(§2) In vitro inhibition assay. Activity assays for NDM-1, VIM-1, VIM-2 and IMP-7 were carried out, as described by Klingler et al. Final protein concentrations were 0.5 nM (NDM-1), 4.0 nM (VIM-1), and 0.1 nM (IMP-7) in a 50 mM HEPES buffer (pH 7.5, 0.01% Triton X-100) Substrate (Fluorocillin™ (Invitrogen, Darmstadt, Germany) was dissolved in assay buffer to a final concentration of 888 nM. Test compounds were dissolved and pre-diluted in DMSO (final concentration: 1%). In a black polystyrol 96-well plate (Corning) an amount of […] of the respective inhibitor solution at different concentrations was incubated with […] of respective protein containing buffer for 30 minutes at room temperature. […] of substrate solution was added. The readout of the emitted fluorescence was started immediately (45 s for 30 cycles) using a Tecan Infinite F200Pro (Tecan Group Ltd; excitation at 495 nm and emission at 525 nm). Blank controls were performed without enzyme. Positive controls were performed with enzyme but without inhibitor. The inhibitory activity of each test compound was measured in three independent experiments. For calculation of IC50 values, data obtained from measurements with eight different inhibitor concentrations were used. For the evaluation of the sigmoidal dose response equation (variable slope with four parameters) GraphPad Prism 5 (GraphPad Software, La Jolla, Calif., USA) was used.

[2] = molecular target: T2, VIM-1 (Pseudomonas aeruginosa, UniProt A0A0F7KYQ8); test: In vitro inhibition assay (kinetic fluorescence-based activity assay), VIM-1; assay type: biochemical; conditions: Means and SD of at least two independent experiments
T2 construct: made in house
Experimental: as §1, §2

[3] = molecular target: IMP-7 (Pseudomonas aeruginosa, UniProt Q93AU3); test: In vitro inhibition assay (kinetic fluorescence-based activity assay), IMP-7; assay type: biochemical; conditions: Means and SD of at least two independent experiments
Sequence of IMP-7 (Q93AU3 entry or part of it): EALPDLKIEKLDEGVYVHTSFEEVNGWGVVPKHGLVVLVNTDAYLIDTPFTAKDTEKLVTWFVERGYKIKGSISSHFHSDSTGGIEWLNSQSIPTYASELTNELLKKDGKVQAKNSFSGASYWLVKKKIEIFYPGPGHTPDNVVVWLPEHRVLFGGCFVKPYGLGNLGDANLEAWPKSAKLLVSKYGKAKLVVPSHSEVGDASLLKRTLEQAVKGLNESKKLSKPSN
Experimental: as §1, §2

[4] = tested on: E. coli VIM-1 (T2544); test: Checkerboard assay with imipenem, E. coli VIM-1 (T2544); assay type: cell-based
Experimental: (§3) Fractional inhibitory concentration index (FICI). The checkerboard assay was performed to test for synergy in vitro. […] FICIs≤0.5 were defined as synergistic; FICIs from >0.5 to […] were defined as additive; FICIs from 1 to ≤4 were defined as indifferent and FICIs>4 were defined as antagonistic (Doern, C. D. When Does 2 plus 2 Equal 5? A Review of Antimicrobial Synergy Testing. J. Clin. Microbial. 2014, 52 (12), 4124-4128. https://doi.org/10.1128/JCM.01121-14).

[5] = tested on: different isolates from E. coli and P. aeruginosa; test: MIC assay, intrinsic antibacterial activity; assay type: cell-based; conditions: compound alone
[6] = tested on: E. coli IMP-1 (T2360); test: Checkerboard assay with imipenem, E. coli IMP-1 (T2360); assay type: cell-based
Experimental: as §3

[7] = tested on: E. coli NDM-1 (T2359); test: Checkerboard assay with imipenem, E. coli NDM-1 (T2359); assay type: cell-based; conditions: Table 6
Experimental: as §3

T1 sequence (C7C422 29-270, looked up, species assumed): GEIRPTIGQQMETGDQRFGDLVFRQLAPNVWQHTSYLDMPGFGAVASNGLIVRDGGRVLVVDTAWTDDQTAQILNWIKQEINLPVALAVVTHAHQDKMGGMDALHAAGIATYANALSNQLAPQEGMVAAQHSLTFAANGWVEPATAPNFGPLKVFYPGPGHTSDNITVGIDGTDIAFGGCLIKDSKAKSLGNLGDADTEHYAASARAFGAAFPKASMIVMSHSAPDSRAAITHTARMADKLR

IC50 [1]: 1.3 ± 0.2 µM
IC50 (μM) VIM-1 [2]: n.i.
IC50 [3]: 1 ± 0.1 µM
Compound: COC(=O)c1ccccc1NC(=O)CCS [HIPS1685]

IC50 [1]: 2.7 ± 0.5 µM
IC50 [2]: 0.1 µM
IC50 [3]: 1.4 ± 0.2 µM
Compound: O=C(CCS)Nc1cccc(O)c1 [HIPS1687]

IC50 [1]: 1.5 ± 0.3 µM
IC50 [2]: 0.4 ± 0.1 µM
IC50 [3]: 5.5 ± 0.1 µM
Compound: CC(=O)c1ccc(NC(=O)CCS)cc1 [HIPS5188]

IC50 [1]: 4 ± 1.1 µM
IC50 [2]: 0.2 µM
IC50 [3]: 3.4 ± 0.7 µM
Compound: O=C(CCS)Nc1ccc(O)cc1 [HIPS5190]

IC50 [1]: 2.2 ± 0.3 µM
IC50 [2]: 1.3 µM
IC50 [3]: 1.3 µM
Compound: CS(=O)(=O)Nc1cccc(NC(=O)CCS)c1 [HIPS5585]

IC50 [1]: 2.8 ± 0.1 µM
IC50 [2]: 0.1 µM
IC50 [3]: 1.1 ± 0.7 µM
Compound: COC(=O)c1ccc(NC(=O)CCS)cc1 [HIPS5586]

IC50 [1]: 7 ± 0.3 µM
IC50 [2]: 1.9 ± 0.2 µM
IC50 (μM) IMP-7 [3]: n.i.
Compound: CS(=O)(=O)Nc1ccccc1NC(=O)CCS [HIPS5654]

IC50 [1]: 2.5 ± 0.2 µM
IC50 [2]: 1.7 ± 0.3 µM
IC50 [3]: 7.1 ± 1.4 µM
Compound: O=C(CCS)Nc1ccc(S(=O)(=O)N2CCOCC2)cc1 [HIPS5659]

IC50 [1]: 2.2 ± 0.4 µM
IC50 [2]: 0.2 µM
IC50 [3]: 3.3 ± 0.4 µM
Compound: O=C(CCS)Nc1ccccc1O [HIPS5661]

IC50 [1]: 2.5 ± 0.2 µM
IC50 [2]: 0.1 µM
IC50 [3]: 2.6 ± 0.1 µM
Compound: O=C(CCS)Nc1cccc([N+](=O)[O-])c1 [HIPS5662]

IC50 [1]: 6.5 ± 0.4 µM
IC50 [2]: 0.8 ± 0.1 µM
IC50 [3]: 5.5 ± 0.7 µM
Compound: CCN(CC)Cc1cccc(NC(=O)CCS)c1 [HIPS5664]

IC50 [1]: 2.8 ± 0.1 µM
IC50 [2]: 0.8 µM
IC50 [3]: 2.1 ± 0.2 µM
Compound: CN(C)S(=O)(=O)c1ccc(NC(=O)CCS)cc1 [HIPS5665]

IC50 [1]: 6.5 ± 0.5 µM
IC50 [2]: 0.5 µM
IC50 [3]: 2.1 ± 0.3 µM
Compound: Nc1ccc(NC(=O)CCS)cc1 [HIPS5666]

Compound: O=C(CCS)Nc1cccc(S(=O)(=O)O)c1 [HIPS5672]
Imipenem MIC ([4]; +2 mg/L compound): 64 µg/mL
Imipenem MIC ([4]; +4 mg/L compound): 64 µg/mL
Imipenem MIC ([4]; +8 mg/L compound): 64 µg/mL
Imipenem MIC ([4]; +16 mg/L compound): 32 µg/mL
Imipenem MIC ([4]; +32 mg/L compound): 32 µg/mL
Imipenem MIC ([4]; +64 mg/L compound): 8 µg/mL
Imipenem MIC ([4]; +128 mg/L compound): 4 µg/mL
IC50 [1]: 1.3 µM
intrinsic antibacterial activity (MIC) [5]: no intrinsic antibacterial activity
IC50 [2]: 1.6 ± 0.1 µM
Imipenem MIC ([6]; +2 mg/L compound): 2 µg/mL
Imipenem MIC ([6]; +4 mg/L compound): 2 µg/mL
Imipenem MIC ([6]; +8 mg/L compound): 2 µg/mL
Imipenem MIC ([6]; +16 mg/L compound): 1 µg/mL
Imipenem MIC ([6]; +32 mg/L compound): 1 µg/mL
Imipenem MIC ([6]; +64 mg/L compound): 1 µg/mL
Imipenem MIC ([6]; +128 mg/L compound): 0.5 µg/mL
IC50 [3]: 3.6 ± 0.3 µM
Imipenem MIC ([7]; +2 mg/L compound): 128 µg/mL
Imipenem MIC ([7]; +4 mg/L compound): 128 µg/mL
Imipenem MIC ([7]; +8 mg/L compound): 128 µg/mL
Imipenem MIC ([7]; +16 mg/L compound): 128 µg/mL
Imipenem MIC ([7]; +32 mg/L compound): 128 µg/mL
Imipenem MIC ([7]; +64 mg/L compound): 32 µg/mL
Imipenem MIC ([7]; +128 mg/L compound): 2 µg/mL

Compound: NC(=O)NS(=O)(=O)c1ccc(NC(=O)CCS)cc1 [HIPS5682]
Imipenem MIC ([4]; +2 mg/L compound): 32 µg/mL
Imipenem MIC ([4]; +4 mg/L compound): 32 µg/mL
Imipenem MIC ([4]; +8 mg/L compound): 32 µg/mL
Imipenem MIC ([4]; +16 mg/L compound): 32 µg/mL
Imipenem MIC ([4]; +32 mg/L compound): 16 µg/mL
Imipenem MIC ([4]; +64 mg/L compound): 8 µg/mL
Imipenem MIC ([4]; +128 mg/L compound): 2 µg/mL
IC50 [1]: 8.6 ± 0.2 µM
intrinsic antibacterial activity (MIC) [5]: no intrinsic antibacterial activity
IC50 [2]: 2 ± 0.1 µM
Imipenem MIC ([6]; +2 mg/L compound): 2 µg/mL
Imipenem MIC ([6]; +4 mg/L compound): 2 µg/mL
Imipenem MIC ([6]; +8 mg/L compound): 2 µg/mL
Imipenem MIC ([6]; +16 mg/L compound): 1 µg/mL
Imipenem MIC ([6]; +32 mg/L compound): 1 µg/mL
Imipenem MIC ([6]; +64 mg/L compound): 1 µg/mL
Imipenem MIC ([6]; +128 mg/L compound): 1 µg/mL
IC50 [3]: 12.6 ± 2.8 µM
Imipenem MIC ([7]; +2 mg/L compound): 128 µg/mL
Imipenem MIC ([7]; +4 mg/L compound): 128 µg/mL
Imipenem MIC ([7]; +8 mg/L compound): 128 µg/mL
Imipenem MIC ([7]; +16 mg/L compound): 128 µg/mL
Imipenem MIC ([7]; +32 mg/L compound): 128 µg/mL
Imipenem MIC ([7]; +64 mg/L compound): 64 µg/mL
Imipenem MIC ([7]; +128 mg/L compound): 16 µg/mL

Compound: N=C(N)NS(=O)(=O)c1ccc(NC(=O)CCS)cc1 [HIPS5683]
Imipenem MIC ([4]; +2 mg/L compound): 32 µg/mL
Imipenem MIC ([4]; +4 mg/L compound): 32 µg/mL
Imipenem MIC ([4]; +8 mg/L compound): 32 µg/mL
Imipenem MIC ([4]; +16 mg/L compound): 32 µg/mL
Imipenem MIC ([4]; +32 mg/L compound): 16 µg/mL
Imipenem MIC ([4]; +64 mg/L compound): 8 µg/mL
Imipenem MIC ([4]; +128 mg/L compound): 2 µg/mL
IC50 [1]: 2.1 ± 0.1 µM
intrinsic antibacterial activity (MIC) [5]: no intrinsic antibacterial activity
IC50 [2]: 0.5 µM
Imipenem MIC ([6]; +2 mg/L compound): 2 µg/mL
Imipenem MIC ([6]; +4 mg/L compound): 1 µg/mL
Imipenem MIC ([6]; +8 mg/L compound): 1 µg/mL
Imipenem MIC ([6]; +16 mg/L compound): 1 µg/mL
Imipenem MIC ([6]; +32 mg/L compound): 1 µg/mL
Imipenem MIC ([6]; +64 mg/L compound): 1 µg/mL
Imipenem MIC ([6]; +128 mg/L compound): 0.5 µg/mL
IC50 [3]: 3.3 ± 0.4 µM
Imipenem MIC ([7]; +2 mg/L compound): 128 µg/mL
Imipenem MIC ([7]; +4 mg/L compound): 128 µg/mL
Imipenem MIC ([7]; +8 mg/L compound): 128 µg/mL
Imipenem MIC ([7]; +16 mg/L compound): 128 µg/mL
Imipenem MIC ([7]; +32 mg/L compound): 128 µg/mL
Imipenem MIC ([7]; +64 mg/L compound): 64 µg/mL
Imipenem MIC ([7]; +128 mg/L compound): 16 µg/mL

Compound: O=C(CCS)Nc1ccc(C(=O)O)cc1 [HIPS5695]
Imipenem MIC ([4]; +2 mg/L compound): 16 µg/mL
Imipenem MIC ([4]; +4 mg/L compound): 16 µg/mL
Imipenem MIC ([4]; +8 mg/L compound): 16 µg/mL
Imipenem MIC ([4]; +16 mg/L compound): 16 µg/mL
Imipenem MIC ([4]; +32 mg/L compound): 4 µg/mL
Imipenem MIC ([4]; +64 mg/L compound): 2 µg/mL
Imipenem MIC ([4]; +128 mg/L compound): 1 µg/mL
IC50 [1]: 1 ± 0.4 µM
intrinsic antibacterial activity (MIC) [5]: no intrinsic antibacterial activity
IC50 [2]: 0.6 µM
Imipenem MIC ([6]; +2 mg/L compound): 2 µg/mL
Imipenem MIC ([6]; +4 mg/L compound): 2 µg/mL
Imipenem MIC ([6]; +8 mg/L compound): 2 µg/mL
Imipenem MIC ([6]; +16 mg/L compound): 1 µg/mL
Imipenem MIC ([6]; +32 mg/L compound): 1 µg/mL
Imipenem MIC ([6]; +64 mg/L compound): 0.5 µg/mL
Imipenem MIC ([6]; +128 mg/L compound): 0.5 µg/mL
IC50 (μM) IMP-7 [3]: n.i.
Imipenem MIC ([7]; +2 mg/L compound): 128 µg/mL
Imipenem MIC ([7]; +4 mg/L compound): 128 µg/mL
Imipenem MIC ([7]; +8 mg/L compound): 128 µg/mL
Imipenem MIC ([7]; +16 mg/L compound): 128 µg/mL
Imipenem MIC ([7]; +32 mg/L compound): 128 µg/mL
Imipenem MIC ([7]; +64 mg/L compound): 32 µg/mL
Imipenem MIC ([7]; +128 mg/L compound): 8 µg/mL

IC50 [1]: 6.4 ± 0.6 µM
IC50 [2]: 1.5 ± 0.1 µM
IC50 [3]: 5.8 ± 0.4 µM
Compound: CN1CCN(Cc2ccc(NC(=O)CCS)cc2)CC1 [HIPS5696]

Reference: patent publication US20230146507A1, “N-PHENYL-3-MERCAPTOPROPANAMIDE DERIVATIVES AS METALLO-BETA-LACTAMASE INHIBITORS FOR THE TREATMENT OF BACTERIAL INFECTIONS” (Helmholtz-Zentrum Für Infektionsforschung GmbH, priority 2020, published 2023)
